The target of assay [1] is T1, HIV-1 YU2 gp120 (Human immunodeficiency virus type 1 group M subtype B, UniProt P35961).
T1 construct: made in house; host or cells: Drosophila S2 cells
Type of assay: binding. Conditions: for dissociation rate constant (koff): Table 11, dissociation rate; for Ka: Table 11, association rate. Here is the method:
Surface plasmon resonance (SPR) interaction analyses were performed on a Biacore® 3000 optical biosensor (GE). All experiments were carried out at 25° C. using standard PBS, pH 7.4, with 0.005% Surfactant P20.
Regeneration of the surface was achieved by a one 5-second pulse of 10 mM glycine, pH 1.5.
SPR data analyses were performed using BIAEvaluation 4.0 software (GE). […] Experimental data were fitted to a simple 1:1 binding model with a parameter included for mass transport. […] The inhibition curve was converted into a calibration curve by the use of a fitting function. The fitting was done using the 4-parameter equation in BIAevaluation software: […]

The target in assay [2] is T2, gp120 (Human immunodeficiency virus type 1 group M subtype B, UniProt P35961).
T2 construct: made in house; host or cells: Drosophila S2 cells
Type of assay: binding, HIV-1. To be noted: ITC, 25° C., PBS pH 7.4. Here is the method:
FIGS. 14A-14D are a series of graphs of calorimetric titration data of gp120 with various peptides. […] Data was obtained as 25° C. in PBS, pH 7.4. Experiments in FIGS. 14A and 14B were carried out using a VP-ITC, where 2 μM gp120 in the calorimetric cell (˜1.4 mL) was titrated with 10 μL aliquots of peptide at concentration of 30 μM.
Isothermal titration calorimetric experiments were performed using high-precision calorimetric systems of model VP-ITC or ITC20 from MicroCal Inc. The titrations were performed by stepwise addition of peptide to gp120 contained in the calorimetric cell at a constant temperature of 25° C. […] For the experiments carried out in the VP-ITC the concentration of gp120 was about 2 μM and the syringe contained the peptide at a concentration about 30 μM. For the experiment carried out using ITC20 gp120 was prepared at about 4 μM and the peptide at 50-100 μM. The solutions contained within the calorimetric cells and injector syringes were prepared in PBS, pH 7.4 and thoroughly degassed to avoid bubble formation in the calorimetric cell. The heat evolved upon each injection of the peptide solution was obtained from the integral of the calorimetric signal. The heat associated with binding of a ligand to the protein in the cell was obtained by subtracting the heat of dilution from the heat of reaction.

Assay [3] has as its system HIV-1 strain BaL. To be noted: P4-CCR5 cells; Gopi et al., 2008; read-out: IC50, inhibition of infection by HIV-1 BaL; cited from earlier work.
Assay [4] has as its system HIV-1 strain BaL. Briefly: Combination of HNG-156 and cyanovirin-N, HIV-1 BaL infection of P4-CCR5 cells. Type of assay: cell-based. Conditions: agent alone.

Broadly, the IC50 is the concentration that inhibits the measured activity by half.

*1 amine or outer side, *2 acyl side, *3 side chain or, on linkers, in order; H or OH if unused. Where a SMILES comes first, the peptide text is derived from it. [ ]: non-standard residue; d: D form. X1 = O=C([C@@H]1C[C@H](n2cc([C]34[CH]5[CH]6[CH]7[CH]3[Fe]6754389%10[CH]4[CH]3[CH]8[CH]9[CH]4%10)nn2)CN1[*:1])[*:2]; Cit = NC(=O)NCCC[C@H](N)C(=O)O

Consider `CC[C@H](C)[C@H](NC(=O)[C@H](CC(N)=O)NC(=O)[C@@H](N)CC(N)=O)C(=O)N1C[C@@H](n2cc([C]34[CH]5[CH]6[CH]7[CH]3[Fe]6754389%10[CH]4[CH]3[CH]8[CH]9[CH]4%10)nn2)C[C@H]1C(=O)N[C@@H](Cc1c[nH]c2ccccc12)C(=O)N[C@@H](CO)C(N)=O` (some centres unmarked) [UM31] (H-NNI[X1]WS-NH2), for which the “dissociation rate constant (koff)” value in assay [1] is reported as 7.8E−03 ± 1.1 1/S. Besides, in assay [2], the ΔH is -13.8 kcal/mol and the “−TΔS” value is “+4.1 kcal/mol”. With “12-mer peptide RINNIPWSEAMM (SEQ ID NO. 16) from phage-display library [Conjugate 12p1, reference compound]”, the 50% inhibitory concentration (IC50) in assay [3] was 48 µM.

`CC[C@H](C)[C@H](NC(=O)[C@H](CC(N)=O)NC(=O)[C@@H](N)CCCNC(=N)N)C(=O)N1C[C@@H](n2cc([C]34[CH]5[CH]6[CH]7[CH]3[Fe]6754389%10[CH]4[CH]3[CH]8[CH]9[CH]4%10)nn2)C[C@H]1C(=O)N[C@@H](Cc1c[nH]c2ccccc12)C(=O)N[C@@H](CO)C(N)=O` (some centres unmarked) [UM32] (H-RNI[X1]WS-NH2): the “dissociation rate constant (koff)” value in assay [1] is reported as 3.1E−03 ± 1.5 1/S.

Consider `CC[C@H](C)[C@H](NC(=O)[C@@H](N)CCCNC(=N)N)C(=O)N[C@@H](CC(N)=O)C(=O)N[C@@H](CC(N)=O)C(=O)N[C@H](C(=O)N1C[C@@H](n2cc([C]34[CH]5[CH]6[CH]7[CH]3[Fe]6754389%10[CH]4[CH]3[CH]8[CH]9[CH]4%10)nn2)C[C@H]1C(=O)N[C@@H](Cc1c[nH]c2ccccc12)C(=O)N[C@@H](CO)C(N)=O)[C@@H](C)CC` (some centres unmarked) [UM11] (H-RINNI[X1]WS-NH2; N-terminus and C-terminus assumed), for which the “dissociation rate constant (koff)” value in assay [1] is 2.1E−02 ± 0.6 1/S. On to `CC[C@H](C)[C@H](N)C(=O)N[C@@H](CC(N)=O)C(=O)N[C@@H](CC(N)=O)C(=O)N[C@H](C(=O)N1C[C@@H](n2cc([C]34[CH]5[CH]6[CH]7[CH]3[Fe]6754389%10[CH]4[CH]3[CH]8[CH]9[CH]4%10)nn2)C[C@H]1C(=O)N[C@@H](Cc1c[nH]c2ccccc12)C(=O)N[C@@H](CO)C(N)=O)[C@@H](C)CC` (some centres unmarked) [UM21] (H-INNI[X1]WS-NH2; N-terminus and C-terminus assumed), for which the “dissociation rate constant (koff)” value in assay [1] is on record as 1.4E−03 ± 0.5 1/S.

With `CC[C@H](C)[C@H](NC(=O)[C@H](CC(N)=O)NC(=O)[C@H](CC(N)=O)NC(=O)[C@@H](N)CCCNC(=N)N)C(=O)N1C[C@@H](n2cc([C]34[CH]5[CH]6[CH]7[CH]3[Fe]6754389%10[CH]4[CH]3[CH]8[CH]9[CH]4%10)nn2)C[C@H]1C(=O)N[C@@H](Cc1c[nH]c2ccccc12)C(=O)N[C@@H](CO)C(N)=O` (some centres unmarked) [UM22] (H-RNNI[X1]WS-NH2; N-terminus and C-terminus assumed), the “dissociation rate constant (koff)” value in assay [1] was 6.8E−03 ± 0.4 1/S.

Regarding `CC[C@H](C)[C@H](NC(=O)[C@@H](N)CC(N)=O)C(=O)N1C[C@@H](n2cc([C]34[CH]5[CH]6[CH]7[CH]3[Fe]6754389%10[CH]4[CH]3[CH]8[CH]9[CH]4%10)nn2)C[C@H]1C(=O)N[C@@H](Cc1c[nH]c2ccccc12)C(=O)N[C@@H](CO)C(N)=O` (some centres unmarked) [UM41] (H-NI[X1]WS-NH2), in assay [1], the Ka entry is “Not detectable” and the “dissociation rate constant (koff)” value is “Not detectable”. Also, in assay [2], the ΔH is -6.1 kcal/mol and the “−TΔS” value is -1.6 kcal/mol. Consider `CC[C@H](C)[C@H](NC(=O)[C@H](CC(N)=O)NC(=O)[C@H](CC(N)=O)NC(=O)[C@@H](N)CCCCN)C(=O)N1C[C@@H](n2cc([C]34[CH]5[CH]6[CH]7[CH]3[Fe]6754389%10[CH]4[CH]3[CH]8[CH]9[CH]4%10)nn2)C[C@H]1C(=O)N[C@@H](Cc1c[nH]c2ccccc12)C(=O)N[C@@H](CO)C(N)=O` (some centres unmarked) [UM27] (H-KNNI[X1]WS-NH2), for which the “dissociation rate constant (koff)” value in assay [1] is 8.8E−03 ± 2.1 1/S. Regarding `CC[C@H](C)[C@H](NC(=O)[C@H](CC(N)=O)NC(=O)[C@@H](N)CCCNC(N)=O)C(=O)N1C[C@@H](n2cc([C]34[CH]5[CH]6[CH]7[CH]3[Fe]6754389%10[CH]4[CH]3[CH]8[CH]9[CH]4%10)nn2)C[C@H]1C(=O)N[C@@H](Cc1c[nH]c2ccccc12)C(=O)N[C@@H](CO)C(N)=O` (some centres unmarked) [UM34] (H-[Cit]NI[X1]WS-NH2; N-terminus assumed), in assay [1], the Ka entry is on record as “Not detectable” and the “dissociation rate constant (koff)” value was “Not detectable”. As to `CC[C@H](C)[C@H](N)C(=O)N[C@@H](CC(N)=O)C(=O)N[C@@H](CC(N)=O)C(=O)N[C@H](C(=O)N1C[C@@H](n2cc([C]34[CH]5[CH]6[CH]7[CH]3[Fe]6754389%10[CH]4[CH]3[CH]8[CH]9[CH]4%10)nn2)C[C@H]1C(=O)N[C@@H](Cc1c[nH]c2ccccc12)C(N)=O)[C@@H](C)CC` (some centres unmarked) [UM15] (H-INNI[X1]W-NH2), in assay [1], the “dissociation rate constant (koff)” value is reported as 3.3E−03 ± 0.3 1/S. Moreover, in assay [2], the ΔH was -16.6 kcal/mol and the “−TΔS” value is “+6.6 kcal/mol”. As for `CC[C@H](C)[C@H](NC(=O)[C@H](CC(N)=O)NC(=O)[C@@H](N)CCC(=O)O)C(=O)N1C[C@@H](n2cc([C]34[CH]5[CH]6[CH]7[CH]3[Fe]6754389%10[CH]4[CH]3[CH]8[CH]9[CH]4%10)nn2)C[C@H]1C(=O)N[C@@H](Cc1c[nH]c2ccccc12)C(=O)N[C@@H](CO)C(N)=O` (some centres unmarked) [UM33] (H-ENI[X1]WS-NH2), the “dissociation rate constant (koff)” value in assay [1] is on record as 1.8E−03 ± 0.8 1/S. As to `CC[C@H](C)[C@H](NC(=O)[C@H](CC(N)=O)NC(=O)[C@H](CC(N)=O)NC(=O)[C@@H](N)CCC(=O)O)C(=O)N1C[C@@H](n2cc([C]34[CH]5[CH]6[CH]7[CH]3[Fe]6754389%10[CH]4[CH]3[CH]8[CH]9[CH]4%10)nn2)C[C@H]1C(=O)N[C@@H](Cc1c[nH]c2ccccc12)C(=O)N[C@@H](CO)C(N)=O` (some centres unmarked) [UM23] (H-ENNI[X1]WS-NH2; N-terminus and C-terminus assumed), in assay [1], the “dissociation rate constant (koff)” value is reported as 3.4E−03 ± 0.2 1/S. For the molecule `CC[C@H](C)[C@H](N)C(=O)N[C@@H](CC(N)=O)C(=O)N[C@H](C(=O)N1C[C@@H](n2cc([C]34[CH]5[CH]6[CH]7[CH]3[Fe]6754389%10[CH]4[CH]3[CH]8[CH]9[CH]4%10)nn2)C[C@H]1C(=O)N[C@@H](Cc1c[nH]c2ccccc12)C(=O)N[C@@H](CO)C(N)=O)[C@@H](C)CC` (some centres unmarked) [UM35] (H-INI[X1]WS-NH2; N-terminus assumed), in assay [1], the Ka entry is on record as “Not detectable” and the “dissociation rate constant (koff)” value is “Not detectable”. `CC[C@H](C)[C@H](NC(=O)[C@H](CC(N)=O)NC(=O)[C@H](CC(N)=O)NC(=O)[C@@H](N)Cc1ccccc1)C(=O)N1C[C@@H](n2cc([C]34[CH]5[CH]6[CH]7[CH]3[Fe]6754389%10[CH]4[CH]3[CH]8[CH]9[CH]4%10)nn2)C[C@H]1C(=O)N[C@@H](Cc1c[nH]c2ccccc12)C(=O)N[C@@H](CO)C(N)=O` (some centres unmarked) [UM28] (H-FNNI[X1]WS-NH2): the “dissociation rate constant (koff)” value in assay [1] is reported as 4.3E−03 ± 0.8 1/S. Consider `CC[C@H](C)[C@H](NC(=O)[C@@H](N)CCCNC(=N)N)C(=O)N[C@@H](CC(N)=O)C(=O)N[C@@H](CC(N)=O)C(=O)N[C@H](C(=O)N1C[C@@H](n2cc([C]34[CH]5[CH]6[CH]7[CH]3[Fe]6754389%10[CH]4[CH]3[CH]8[CH]9[CH]4%10)nn2)C[C@H]1C(N)=O)[C@@H](C)CC` (some centres unmarked) [UM16] (H-RINNI[X1]-NH2; N-terminus assumed), for which, in assay [1], the Ka result is reported as “Not detectable” and the “dissociation rate constant (koff)” value was “Not detectable”. As to `CC[C@H](C)[C@H](NC(=O)[C@H](CC(N)=O)NC(=O)[C@H](CC(N)=O)NC(=O)[C@@H](N)CCCNC(N)=O)C(=O)N1C[C@@H](n2cc([C]34[CH]5[CH]6[CH]7[CH]3[Fe]6754389%10[CH]4[CH]3[CH]8[CH]9[CH]4%10)nn2)C[C@H]1C(=O)N[C@H](Cc1c[nH]c2ccccc12)C(=O)N[C@@H](CO)C(N)=O` (some centres unmarked) [UM24-DW] (H-[Cit]NNI[X1][dW]S-NH2; N-terminus assumed), in assay [1], the Ka entry is “Not detectable” and the “dissociation rate constant (koff)” value is reported as “Not detectable”.

B1: Cyanovirin-N: 11 kD protein originally isolated from the cyanobacteria Nostoc ellipsosporum; binds gp120 (protein, listed as Nostoc ellipsosporum)
chain: LGKFSQTCYNSAIQGSVLTSTCERTNGGYNTSSIDLNSVIENVDGSLKWQPSNFIETCRNTQLAGSSELAAECKTRAQQFVSTKINLDDHIANIDGTLKYE
modifications: DISULFID (8)..(22); DISULFID (58)..(73)
For the molecule B1, the “Viral infectivity inhibition IC50” value in assay [4] is 0.026 microgram/milliliter. Moreover, the “EC50 Dm” value in assay [4] (dose at which 50% neutralization occurs) is 0.045 µg/mL.

Source of the values: patent US8951963B2, “Active cores of peptide triazole HIV-1 entry inhibitors” (priority 2009, dated 2015).
